Assay results from ChEMBL document CHEMBL1201862, “PubChem BioAssay data set” (2004).
Values joined by “and” are separate entries in the source; they are usually repeats but may differ in a detail not shown here. Equal entries are not always repeated.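 In this assay, cells in 96-well plates receive the compound at five concentrations for 48 hours. Endpoints are linearly interpolated between the surrounding concentrations. GI50: concentration for 50% inhibition of growth.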 Active and inactive are the calls of the source. Rule as the data show it: active = GI50 up to about 1.1 µM and inactive = higher.

Experiments:
Assay in all cases: NCI tumour cell line growth inhibition, 48 h
OVCAR-8 = test system: OVCAR-8
UO-31 = test system: UO-31
HCT-116 = test system: HCT-116
HL-60 = test system: HL-60
MCF7 = test system: MCF7
K562 = test system: K562
SR = test system: SR
MDA-MB-435 = test system: MDA-MB-435
M14 = test system: M14
SW-620 = test system: SW-620
HOP-62 = test system: HOP-62
OVCAR-4 = test system: OVCAR-4
SK-MEL-28 = test system: SK-MEL-28
SNB-75 = test system: SNB-75
HCC 2998 = test system: HCC 2998
MOLT-4 = test system: MOLT-4
786-0 = test system: 786-0
NCI-H226 = test system: NCI-H226
Hs-578T = test system: Hs-578T
CAKI-1 = test system: CAKI-1
HT-29 = test system: HT-29
MDA-N = test system: MDA-N
KM12 = test system: KM12
HCT-15 = test system: HCT-15
SF-539 = test system: SF-539
SK-MEL-5 = test system: SK-MEL-5
NCI-H460 = test system: NCI-H460
COLO 205 = test system: COLO 205
SF-268 = test system: SF-268
OVCAR-5 = test system: OVCAR-5
Malme-3M = test system: Malme-3M
ACHN = test system: ACHN
UACC-257 = test system: UACC-257
A549 = test system: A549
TK-10 = test system: TK-10
HOP-92 = test system: HOP-92
RPMI-8226 = test system: RPMI-8226
EKVX = test system: EKVX
PC-3 = test system: PC-3
SF-295 = test system: SF-295
DU-145 = test system: DU-145
LOX IMVI = test system: LOX IMVI
OVCAR-3 = test system: OVCAR-3
SK-MEL-2 = test system: SK-MEL-2
NCI/ADR-RES = test system: NCI/ADR-RES
SN12C = test system: SN12C
U-251 = test system: U-251
IGROV-1 = test system: IGROV-1
UACC-62 = test system: UACC-62
CCRF-CEM = test system: CCRF-CEM
T47D = test system: T47D
NCI-H23 = test system: NCI-H23
SK-OV-3 = test system: SK-OV-3
MDA-MB-231 = test system: MDA-MB-231
RXF 393 = test system: RXF 393
NCI-H522 = test system: NCI-H522
SNB-19 = test system: SNB-19
A498 = test system: A498

Measured: GI50

CC(=O)c1ccc(NC(=O)CSc2nc(C)nc3c2sc(=S)n3-c2ccccc2)cc1
inactive: OVCAR-8 > 10 µM | UO-31 9.42 µM | HCT-116 3 µM | HL-60 2.99 µM | MCF7 > 10 µM | K562 > 10 µM | SR 2.2 µM

CC1(C)CC2C(C1=O)C1(C)CCCC2(C)C1=O (centres undefined)
inactive: MDA-MB-435 > 100 µM | M14 > 100 µM | SW-620 > 100 µM | HOP-62 > 100 µM | OVCAR-4 > 100 µM | SK-MEL-28 > 100 µM | SNB-75 > 100 µM | HCC 2998 > 100 µM | MOLT-4 > 100 µM | OVCAR-8 > 100 µM | 786-0 > 100 µM | NCI-H226 > 100 µM | Hs-578T > 100 µM | CAKI-1 > 100 µM | HT-29 > 100 µM | MDA-N > 100 µM | UO-31 > 100 µM | KM12 > 100 µM | HCT-116 > 100 µM | HL-60 > 100 µM | MCF7 > 100 µM | SF-539 > 100 µM | SK-MEL-5 > 100 µM | NCI-H460 > 100 µM | COLO 205 > 100 µM | SF-268 > 100 µM | OVCAR-5 > 100 µM | Malme-3M > 100 µM | ACHN > 100 µM | UACC-257 > 100 µM | A549 > 100 µM | TK-10 > 100 µM | HOP-92 > 100 µM | RPMI-8226 > 100 µM | K562 > 100 µM | EKVX > 100 µM | PC-3 > 100 µM | SF-295 > 100 µM | DU-145 > 100 µM | LOX IMVI > 100 µM | SR > 100 µM | OVCAR-3 > 100 µM | SK-MEL-2 > 100 µM | NCI/ADR-RES > 100 µM | SN12C > 100 µM | U-251 > 100 µM | IGROV-1 > 100 µM | UACC-62 > 100 µM | CCRF-CEM > 100 µM | T47D > 100 µM | NCI-H23 > 100 µM | SK-OV-3 > 100 µM | MDA-MB-231 > 100 µM
> 100 µM: HCT-15

CC(=O)OCC1OC(n2c(C)c(C(C)=O)c(-c3ccco3)c(C#N)c2=S)C(OC(C)=O)C(OC(C)=O)C1OC(C)=O (centres undefined)
> 100 µM: HCT-15
inactive: MDA-MB-435 > 100 µM | M14 > 100 µM | SW-620 > 100 µM | HOP-62 > 100 µM | SK-MEL-28 > 100 µM | HCC 2998 > 100 µM | MOLT-4 60 µM | OVCAR-8 > 100 µM | 786-0 > 100 µM | NCI-H226 > 100 µM | RXF 393 > 100 µM | HT-29 > 100 µM | MDA-N > 100 µM | KM12 > 100 µM | HCT-116 > 100 µM | HL-60 > 100 µM | MCF7 > 100 µM | SF-539 > 100 µM | SK-MEL-5 78.5 µM | NCI-H460 > 100 µM | COLO 205 > 100 µM | SF-268 > 100 µM | OVCAR-5 > 100 µM | NCI-H522 > 100 µM | Malme-3M > 100 µM | ACHN > 100 µM | UACC-257 > 100 µM | A549 > 100 µM | TK-10 > 100 µM | HOP-92 15.6 µM | K562 > 100 µM and 51.1 µM | EKVX > 100 µM | PC-3 > 100 µM | SF-295 > 100 µM | DU-145 > 100 µM | LOX IMVI 64.3 µM | SNB-19 > 100 µM | SR > 100 µM | OVCAR-3 > 100 µM | NCI/ADR-RES > 100 µM | SN12C > 100 µM | A498 85.1 µM | U-251 > 100 µM | UACC-62 > 100 µM | CCRF-CEM > 100 µM and 53.2 µM | T47D > 100 µM | NCI-H23 > 100 µM | SK-OV-3 > 100 µM | MDA-MB-231 > 100 µM
active: UO-31 < 0.01 µM

CC(=O)Nc1c(C(=N)C#N)ncn1CCO
> 100 µM: HCT-15
inactive: MDA-MB-435 > 100 µM | M14 > 100 µM | SW-620 > 100 µM | HOP-62 > 100 µM | OVCAR-4 > 100 µM | SK-MEL-28 > 100 µM | SNB-75 > 100 µM | HCC 2998 > 100 µM | OVCAR-8 > 100 µM | 786-0 > 100 µM | NCI-H226 > 100 µM | Hs-578T > 100 µM | RXF 393 > 100 µM | CAKI-1 > 100 µM | HT-29 > 100 µM | MDA-N > 100 µM | KM12 > 100 µM | HCT-116 > 100 µM | MCF7 > 100 µM | SF-539 > 100 µM | SK-MEL-5 > 100 µM | NCI-H460 > 100 µM | COLO 205 > 100 µM | SF-268 > 100 µM | OVCAR-5 > 100 µM | NCI-H522 > 100 µM | Malme-3M > 100 µM | ACHN > 100 µM | UACC-257 > 100 µM | A549 > 100 µM | TK-10 > 100 µM | HOP-92 > 100 µM | RPMI-8226 > 100 µM | K562 > 100 µM | EKVX > 100 µM | PC-3 > 100 µM | SF-295 > 100 µM | DU-145 > 100 µM | LOX IMVI > 100 µM | SNB-19 > 100 µM | OVCAR-3 > 100 µM | SK-MEL-2 > 100 µM | NCI/ADR-RES > 100 µM | SN12C > 100 µM | A498 > 100 µM | U-251 > 100 µM | IGROV-1 > 100 µM | UACC-62 > 100 µM | CCRF-CEM > 100 µM | T47D > 100 µM | NCI-H23 > 100 µM | SK-OV-3 > 100 µM | MDA-MB-231 > 100 µM

Nc1c(Br)cc(-c2cc(Br)c(N)c(Br)c2)cc1Br
inactive: MDA-MB-435 > 100 µM | M14 > 100 µM | SW-620 > 100 µM | HOP-62 66.1 µM | OVCAR-4 > 100 µM | SK-MEL-28 > 100 µM | SNB-75 59 µM | HCC 2998 > 100 µM | MOLT-4 > 100 µM | OVCAR-8 > 100 µM | 786-0 > 100 µM | NCI-H226 > 100 µM | Hs-578T 73.1 µM | RXF 393 33.6 µM | CAKI-1 > 100 µM | HT-29 > 100 µM | MDA-N > 100 µM | UO-31 > 100 µM | KM12 > 100 µM | HCT-116 > 100 µM | HL-60 > 100 µM | MCF7 > 100 µM | SF-539 > 100 µM | SK-MEL-5 > 100 µM | NCI-H460 > 100 µM | COLO 205 > 100 µM | SF-268 > 100 µM | OVCAR-5 > 100 µM | NCI-H522 > 100 µM | Malme-3M > 100 µM | ACHN > 100 µM | UACC-257 > 100 µM | A549 > 100 µM | TK-10 > 100 µM | HOP-92 > 100 µM | RPMI-8226 > 100 µM | K562 > 100 µM | EKVX > 100 µM | PC-3 > 100 µM | SF-295 > 100 µM | DU-145 > 100 µM | LOX IMVI > 100 µM | SNB-19 > 100 µM | SR > 100 µM | OVCAR-3 > 100 µM | NCI/ADR-RES > 100 µM | SN12C > 100 µM | IGROV-1 > 100 µM | UACC-62 > 100 µM | CCRF-CEM > 100 µM | T47D > 100 µM | NCI-H23 > 100 µM | SK-OV-3 > 100 µM | MDA-MB-231 > 100 µM

COc1ccc2c(c1)c[n+](C)c1c3cc(OC)c(OC)cc3ccc21
active: NCI-H522 1.02 µM | U-251 1.02 µM
inactive: SW-620 1.37 µM | OVCAR-8 1.22 µM | Hs-578T 2.05 µM | CAKI-1 11.9 µM | MDA-N 1.6 µM | COLO 205 1.67 µM | SF-268 1.45 µM | A549 1.54 µM | LOX IMVI 1.32 µM | SNB-19 3.21 µM | SR 2.1 µM | NCI/ADR-RES > 100 µM | SN12C 1.73 µM | MDA-MB-231 1.42 µM
14 µM: HCT-15

COc1cc2ccc3ccncc3c2cc1OC
inactive: MDA-MB-435 > 10 µM | M14 > 10 µM | SW-620 > 10 µM | HOP-62 > 10 µM | OVCAR-4 > 10 µM | SK-MEL-28 > 10 µM | SNB-75 > 10 µM | MOLT-4 > 10 µM | 786-0 > 10 µM | RXF 393 > 10 µM | CAKI-1 > 10 µM | MCF7 > 10 µM | SK-MEL-5 > 10 µM | NCI-H460 > 10 µM | COLO 205 > 10 µM | SF-268 > 10 µM | OVCAR-5 > 10 µM | Malme-3M > 10 µM | ACHN > 10 µM | A549 > 10 µM | RPMI-8226 > 10 µM | K562 > 10 µM | SR > 10 µM | SK-MEL-2 > 10 µM | NCI/ADR-RES > 10 µM | U-251 > 10 µM | IGROV-1 > 10 µM | UACC-62 > 10 µM | CCRF-CEM > 10 µM | T47D > 10 µM | NCI-H23 > 10 µM | SK-OV-3 > 10 µM
